Assay results reported in ChEMBL document CHEMBL3392926, “Antiprotozoal Activity Profiling of Approved Drugs: A Starting Point toward Drug Repositioning”.
Several values for one entry are separate records, joined by “and”; a condition that tells them apart may be missing. Equal values may be shown once.

Key:
Trypanosoma cruzi = assay: microbe, parasite or virus in culture; format: functional, organism-based, Tulahuen C4 (LacZ); settings: Trypanosoma cruzi, Tulahuen C4 (LacZ), 96 h
Description: DNDI: Chagas in Vitro, 96 hour

cells [1] = format: functional, cell-based; settings: Rattus norvegicus, L6, 72 h
Description: DNDI: Cytotoxicity in Vitro, 72 hour, in rat skeletal myoblast cells

cells [2] = format: functional, cell-based; settings: Mus musculus, NMRI, BalbC or CD1 mice, Macrophage, 96 h
Description: DNDI: Cytotoxicity in Vitro, 96 hour, in mouse macrophages (infected-amastigotes)

[3] = system: Trypanosoma brucei rhodesiense; assay: microbe, parasite or virus in culture; format: functional, organism-based, STIB 900
Description: DNDI: HAT in Vitro, 72 hour

Leishmania donovani [4] = assay: microbe, parasite or virus in culture; format: functional, organism-based, MHOM/ET/67/L82
Description: DNDI: Leish (axenic) in Vitro, 72 hour

Leishmania donovani [5] = assay: microbe, parasite or virus in culture; format: functional, organism-based, MHOM/ET/67/L82; settings: Leishmania donovani, MHOM/ET/67/L82, 96 h
Description: DNDI: Leish (macro) in Vitro, 96 hour

Plasmodium falciparum = assay: microbe, parasite or virus in culture; format: functional, organism-based, K1
Description: DNDI: Malaria in Vitro, 72 hour

[6] = Trypanosoma brucei, STIB 900, 72 h
[7] = Leishmania donovani, MHOM/ET/67/L82, 72 h
[8] = Plasmodium falciparum, K1, 72 h

| SMILES | IC50 (Trypanosoma cruzi) [µM] | IC50 (cells [1]) [µM] | IC50 (cells [2]) [µM] | IC50 [3, 6] [µM] | IC50 (Leishmania donovani [4]; [7]) [µM] | IC50 (Leishmania donovani [5]) [µM] | IC50 (Plasmodium falciparum; [8]) [µM] | IC50 [3] [µM] | IC50 (Leishmania donovani [4]) [µM] | IC50 (Plasmodium falciparum) |
| --- | --- | --- | --- | --- | --- | --- | --- | --- | --- | --- |
| C[C@H]1[C@@H](OC(=O)CCC(=O)O)O[C@@H]2O[C@]3(C)CC[C@H]4[C@H](C)CC[C@@H]1[C@@]24OO3 | 8.97 | 0.78 | > 7.8 | 16.8 | 0.35 | > 7.8 | 0.003 |  |  |  |
| CO[C@H]1/C=C/O[C@@]2(C)Oc3c(C)c(O)c4c(O)c(c(/C=N/N5CCN(C)CC5)c(O)c4c3C2=O)NC(=O)/C(C)=C\C=C\[C@H](C)[C@H](O)[C@@H](C)[C@@H](O)[C@H](C)[C@H](OC(C)=O)[C@H]1C | > 109 | 75.2 | > 36.5 | 16.7 | 1.53 | > 36.5 | 0.1 |  |  |  |
| CO[C@H]1/C=C/O[C@]2(C)Oc3c(C)c(O)c4c(O)c(c5c(nc6cc(C)ccn65)c4c3C2=O)NC(=O)/C(C)=C\C=C\[C@H](C)[C@H](O)[C@@H](C)[C@@H](O)[C@H](C)[C@H](OC(C)=O)[C@H]1C | 40.2 | 88 | > 38.2 | 17.1 | 15 | > 38.2 | 0.92 |  |  |  |
| CO[C@H]1/C=C/O[C@@]2(C)Oc3c(C)c(O)c4c(c3C2=O)C2=NC3(CCN(CC(C)C)CC3)NC2=C(NC(=O)/C(C)=C\C=C\[C@H](C)[C@H](O)[C@@H](C)[C@@H](O)[C@H](C)[C@H](OC(C)=O)[C@H]1C)C4=O | 27.5 | 60.9 | > 35.4 | 12.6 | 56.4 | > 35.4 | 1.59 |  |  |  |
| CC[C@@H]1OC(=O)[C@@H](C)[C@H](O[C@H]2C[C@@](C)(OC)[C@@H](O)[C@H](C)O2)[C@@H](C)[C@H](O[C@H]2O[C@@H](C)C[C@@H](N(C)C)[C@@H]2O)[C@@](C)(O)C[C@H](C)C(=O)[C@@H](C)[C@H](O)[C@@]1(C)O | 114 | 92.2 | > 39.9 | 72.1 | > 133 | > 39.9 | 9.91 |  |  |  |
| CCC[C@@H]1C[C@@H](C(=O)N[C@H]([C@@H]2O[C@H](SC)[C@H](O)[C@@H](O)[C@H]2O)[C@@H](C)O)N(C)C1 | > 221 | > 221 | > 73.8 | > 221 | > 221 | > 73.8 | 7.08 |  |  |  |
| COc1cc(C)c2c(Oc3cccc(C(F)(F)F)c3)c(OC)cc(N[C@H](C)CCCN)c2n1 | 6.11 | 5.52 | 6.47 | 1.42 | 17.9 | > 2.16 | 0.27 |  |  |  |
| CC(=O)[C@H]1CC[C@@H]2[C@@H]3CC[C@@H]4C[C@](C)(O)CC[C@]4(C)[C@H]3CC[C@@]12C | 65 | 23.5 | > 90.2 | 5.47 | 42.5 | > 30.1 | > 15 |  |  |  |
| C[C@H]1c2cccc(O)c2C(O)=C2C(=O)[C@]3(O)C(=O)/C(=C(/N)O)C(=O)[C@@H](N(C)C)[C@@H]3[C@@H](O)[C@@H]21 | 39.1 | 14.5 | 67.5 | 63.7 | 24.1 | > 22.5 | 4.48 |  |  |  |
| O[C@@H](c1cc(C(F)(F)F)nc2c(C(F)(F)F)cccc12)[C@H]1CCCCN1 [(S,R)-MEFLOQUINE] | 4.48 | 3.25 | 7.23 | 0.53 | 38.6 | 2.41 | 0.0024 |  |  |  |
| COC(=O)N[C@H](C(=O)N[C@@H](Cc1ccccc1)[C@@H](O)CN(Cc1ccc(-c2ccccn2)cc1)NC(=O)[C@@H](NC(=O)OC)C(C)(C)C)C(C)(C)C [ATAZANAVIR] | 33.3 | 46.5 | > 37.5 | 12.7 | 24.1 | > 37.5 | 7.95 |  |  |  |
| c1ccc(-c2ccc(C(c3ccccc3)n3ccnc3)cc2)cc1 (stereo unspecified) [BIFONAZOLE] | 0.003 | 39.3 | > 32.2 | 26.8 | 5.48 | > 32.2 | 3.18 |  |  |  |
| CN(C)CCCN1c2ccccc2Sc2ccc(Cl)cc21 [CHLORPROMAZINE] | 17.2 | 12.3 | 31.4 | 1.25 | 48.5 | > 9.41 | 3.03 |  |  |  |
| O=C(O)c1cn(C2CC2)c2cc(N3CCNCC3)c(F)cc2c1=O [CIPROFLOXACIN] | 92 | 118 | > 90.5 | 35.9 | > 302 | > 90.5 | 13.2 |  |  |  |
| C#C[C@]1(O)CC[C@H]2[C@@H]3CCC4=Cc5oncc5C[C@]4(C)[C@H]3CC[C@@]21C [DANAZOL] | 6.25 | 32 | > 29.6 | 45.9 | 10.2 | > 29.6 | 14.1 |  |  |  |
| OCCN(CCO)c1nc(N2CCCCC2)c2nc(N(CCO)CCO)nc(N3CCCCC3)c2n1 [DIPYRIDAMOLE] | 29.3 | 38.6 | > 59.5 | 7.45 | 62 | > 59.5 | 1.3 |  |  |  |

| SMILES | IC50 (Trypanosoma cruzi) [µM] | IC50 (cells [1]) [µM] | IC50 (cells [2]) [µM] | IC50 [3, 6] [µM] | IC50 (Leishmania donovani [4]; [7]) [µM] | IC50 (Leishmania donovani [5]) [µM] | IC50 (Plasmodium falciparum; [8]) [µM] | IC50 [3] [µM] | IC50 (Leishmania donovani [4]) [µM] | IC50 (Plasmodium falciparum) |
| --- | --- | --- | --- | --- | --- | --- | --- | --- | --- | --- |
| COc1ccc(Cl)cc1C(=O)NCCc1ccc(S(=O)(=O)NC(=O)NC2CCCCC2)cc1 [GLYBURIDE] | 93.9 | 116 | > 60.7 | 87.7 | 9.8 | > 60.7 | 38.3 |  |  |  |
| COC1=CC(=O)C[C@@H](C)[C@]12Oc1c(Cl)c(OC)cc(OC)c1C2=O [GRISEOFULVIN] | 87.3 | 20.5 | > 85 | 40 | 87 | > 85 | 75.1 |  |  |  |
| NNC(=O)c1ccncc1 [ISONIAZID] | > 656 | > 656 | > 219 | > 656 | > 656 | > 219 |  | > 729 | > 729 | > 36.5 µM and 246 µM |
| CCC(C)n1ncn(-c2ccc(N3CCN(c4ccc(OCC5COC(Cn6cncn6)(c6ccc(Cl)cc6Cl)O5)cc4)CC3)cc2)c1=O (stereo unspecified) [ITRACONAZOLE] | 0.004 | 1.11 | 4.25 | 8.53 | 2.42 | > 1.42 | 1.37 |  |  |  |
| Cc1cccc(C)c1OCC(=O)N[C@@H](Cc1ccccc1)[C@@H](O)C[C@H](Cc1ccccc1)NC(=O)[C@H](C(C)C)N1CCCNC1=O [LOPINAVIR] | 15.4 | 18.9 | > 47.7 | 10.8 | 11.8 | > 47.7 | 1.92 |  |  |  |
| CCN(CCCCOC(=O)c1ccc(OC)c(OC)c1)C(C)Cc1ccc(OC)cc1 (stereo unspecified) [MEBEVERINE] | 3.89 | 70.8 | > 69.8 | 54.2 | > 210 | 54.9 | 1.74 |  |  |  |
| CN(C)c1ccc(O)c2c1C[C@H]1C[C@H]3[C@H](N(C)C)C(O)=C(C(N)=O)C(=O)[C@@]3(O)C(O)=C1C2=O [MINOCYCLINE] | 22.3 | 9.42 | > 21.9 | 36.6 | 45.7 | > 21.9 | 3.58 |  |  |  |
| NC(=O)c1cccnc1 [NIACINAMIDE] | > 737 | > 737 | > 246 | > 737 | > 737 | > 246 | > 40.9 |  |  |  |
| O=C(Nc1ccc([N+](=O)[O-])cc1Cl)c1cc(Cl)ccc1O [NICLOSAMIDE] | 2.49 | 2.3 | 1.01 | 1.67 | 0.15 | > 0.31 | 1.14 |  |  |  |
| O=C(N/N=C/c1ccc([N+](=O)[O-])o1)c1ccc(O)cc1 [NIFUROXAZIDE] | 0.23 | 12.3 | 36.2 | 0.03 | 2.83 | > 10.9 | 7.82 |  |  |  |
| CNCCC=C1c2ccccc2CCc2ccccc21 [NORTRIPTYLINE] | 22.9 | 27.9 | 38 | 1.17 | > 342 | > 11.4 | 0.58 |  |  |  |
| COc1ccc2[nH]c([S+]([O-])Cc3ncc(C)c(OC)c3C)nc2c1 (stereo unspecified) [OMEPRAZOLE] | 68.3 | 126 | > 86.9 | 51.8 | 90.9 | > 86.9 | 13.2 |  |  |  |
| Fc1ccc([C@@H]2CCNC[C@H]2COc2ccc3c(c2)OCO3)cc1 [PAROXETINE] | 14.4 | 13.8 | 30.4 | 1.13 | > 273 | > 9.11 | 9.23 |  |  |  |
| CN(C)CCCN1c2ccccc2Sc2ccccc21 [PROMAZINE] | 49.1 | 30.1 | > 35.2 | 2.16 | > 316 | > 35.2 | 0.49 |  |  |  |
| CO[C@H]1/C=C/O[C@@]2(C)Oc3c(C)c(O)c4c(O)c(cc(O)c4c3C2=O)NC(=O)/C(C)=C\C=C\[C@H](C)[C@H](O)[C@@H](C)[C@@H](O)[C@@H](C)[C@H](OC(C)=O)[C@@H]1C [RIFAMYCIN] | 50 | 15.7 | 41.6 | 0.99 | 1.5 | > 13.9 | 0.55 |  |  |  |
| CN(C/C=C/C#CC(C)(C)C)Cc1cccc2ccccc12 [TERBINAFINE] | 40.9 | 47 | > 91.5 | 95.2 | 23 | 69.5 | 7.72 |  |  |  |
